*1 amine or outer side, *2 acyl side, *3 side chain or, on linkers, in order; H or OH if unused. Where a SMILES comes first, the peptide text is derived from it. Bridges are numbered along the chain shown (N, C = ends). [ ]: non-standard residue; d: D form. The star is where a group is joined. Leu(3R-O(AcLeu(3R-OH))) = CC(=O)N[C@H](C(=O)O[C@H](C(C)C)[C@H](N)C(=O)O)[C@H](O)C(C)C; Leu(3R-OH,Nα-propionyl) = CCC(=O)N[C@H](C(=O)*)[C@H](O)C(C)C; X1 = CC(C)[C@@H](O[*:3])[C@H](N[*:1])C(=O)[*:2]; NMeT = CN[C@H](C(=O)O)[C@@H](C)O; dPhLac = O=C(O)[C@H](O)Cc1ccccc1; NMeA = CN[C@@H](C)C(=O)O; NMeDha = C=C(NC)C(=O)O
Legend:
[1] = Inhibition of Gq (unknown origin) coupled with muscarinic M1 receptor expressed in CHO cells assessed as reduction in carbachol-induced IP1 accumulation pretreated for 1 hr followed by carbachol addition measured after 35 mins by HTRF assay; assay type: cell-based
[2] = Displacement of [3H]PSB-15900 from Gq (unknown origin) expressed in platelet cell membranes; set-up: species or system Homo sapiens

SMILES | IC50 [1] | pIC50 [2]
C=C1C(=O)N[C@@H](C)C(=O)N(C)[C@@H](C)C(=O)N[C@@H]([C@H](OC(=O)[C@@H](NC(=O)CC)[C@H](O)C(C)C)C(C)C)C(=O)N(C)[C@@H]([C@@H](C)OC)C(=O)O[C@H](C(C)C)[C@H](NC(=O)CCO)C(=O)O[C@H](Cc2ccccc2)C(=O)N1C | 2.29 to 16.2 nM | 7.79 to 8.64
C=C1C(=O)N[C@@H](C)C(=O)N(C)[C@@H](C)C(=O)N[C@@H]([C@H](OC(=O)[C@@H](NC(C)=O)[C@H](O)C(C)C)C(C)C)C(=O)N(C)[C@@H]([C@@H](C)OC)C(=O)O[C@H](C(C)C)[C@H](NC(C)=O)C(=O)O[C@H](Cc2ccccc2)C(=O)N1C (Ac-[X1][dPhLac][NMeDha]A[NMeA][Leu(3R-O(AcLeu(3R-OH)))][NMeT](Me); ester 1-C) | 2.29 to 16.2 nM | 7.79 to 8.64
C=C1C(=O)N[C@@H](C)C(=O)N(C)[C@@H](C)C(=O)N[C@@H]([C@H](OC(=O)[C@@H](NC(=O)CC)[C@H](O)C(C)C)C(C)C)C(=O)N(C)[C@@H]([C@@H](C)OC)C(=O)O[C@H](C(C)C)[C@H](NC(C)=O)C(=O)O[C@H](Cc2ccccc2)C(=O)N1C (Ac-[X1][dPhLac][NMeDha]A[NMeA][X1](Leu(3R-OH,Nα-propionyl))[NMeT](Me); ester 1-C) | 2.29 to 16.2 nM | 7.79 to 8.64
